Assay [1] has as its system human CF tertiary bronchus. The assay can be described thus: Short circuit current in CF bronchus, modified Ussing chamber. In kind it is cell-based.
Procedure: The experiment described above was repeated using human CF tertiary bronchus, using 1 μM secretin.
Assay [2] relates to primary human tertiary bronchial epithelial cells derived from non-CF donors. The assay can be described thus: Short circuit current in confluent tertiary bronchial epithelial cell monolayers, modified Ussing chamber. The format is cell-based. An excerpt: Functional effects of the secretin receptor were probed in epithelial cells derived from the human tertiary bronchus. In brief, tertiary bronchial epithelial were isolated by overnight protease digestion and then cultured until confluency on Snapwell (Costar) permeable supports. The supports were mounted in a modified Ussing chamber, and both luminal and basolateral membranes were bathed in oxygenated Krebs extracellular solution. The cells were voltage clamped to zero to allow changes in short circuit current Isc in response to secretin to be measured. As previously described, 10 μM amiloride was initially added to the luminal membrane (FIG. 6, point a)followed by the addition of 100 μM secretin to the luminal membrane (FIG. 6, point b). A time matched, amiloride-treated control is denoted by the thin trace.

Assay [3] concerns primary human tertiary bronchial epithelial cells. The assay is described as follows: Cl- efflux by MQAE fluorescence. In kind it is cell-based. As to conditions: FIG. 8. The protocol: Molecular Probes). In brief, primary human, tertiary bronchial epithelial cells were isolated as previously described and cultured in a 96 well plate. On reaching confluency, cells were loaded overnight with 4 mM MQAE. Cells were washed in a chloride containing HEPES buffer, before passive Cl^− efflux was initiated by the addition of a Cl^− free buffer. […] 100 nM Secretin mediated Cl^− efflux was inhibited by the non-selective Cl^− blocker NPPB (open circles).

The subject of the next assay is rat cholangiocytes. Conditions: by translocation of AQP-1 water channels; cited from earlier work.
In assay [4] the test system is human tertiary bronchus from non-CF donors. The assay is described as follows: Short circuit current across the bronchial wall, modified Ussing chamber. The format is cell-based. From the text:
In brief, non-branching regions of the human tertiary bronchus from non-CF donors were dissected, cut longitudinally and mounted in between the two compartments of a modified Ussing chamber to measure the short circuit current across the bronchial wall. Both luminal (airway) and basolateral membranes were bathed in oxygenated Krebs extracellular solution and the tissue voltage clamped to zero to allow changes in short circuit current in response to secretin to be measured. Amiloride at a concentration of 10 μM was initially added to the luminal membrane (FIG. 5, point a)(as described by those in the art) to partially block the predominant sodium ion current and unmask underlying ionic currents. On attainment of a stable base line, 3 μM human secretin (supplied by Sigma, catalogue number S714) was added to the luminal membrane (FIG. 5, point b).

The next assay has as its system rats. Conditions: injected intracerebroventricularly; cited from earlier work.
[5] abbreviates: 10 μM ATP or UTP on apical membrane, FIG. 5 point c.

For the compound `N=C(N)NC(=O)c1nc(Cl)c(N)nc1N` [amiloride], the “effect on underlying sodium current” value in assay [1] (amiloride, FIG. 7 point a) is “blocks the underlying sodium current”.
On to `COc1ccc(Cl)cc1C(=O)NCCc1ccc(S(=O)(=O)NC(=O)NC2CCCCC2)cc1` [glibenclamide], for which, in assay [2] (500 μM glibenclamide (CFTR inhibitor)), the “suppression of secretin mediated ionic movement” value is “failed to suppress secretin mediated ionic movement”.
Regarding secretin, the “Cl- efflux (changes in MQAE fluorescence)” value in assay [3] (nanomolar concentrations of secretin (12.5 nM, 100 nM), Cl- free buffer) is “stimulated Cl^− efflux”. The “concentration dependent increase in osmotic H2O permeability” value with rat cholangiocytes is listed as 60%. The “ionic movement (short circuit current Isc)” value in assay [2] (100 μM secretin on luminal membrane after 10 μM amiloride, FIG. 6) is on record as “stimulated ionic movement in a manner consistent with the movement of a negatively charged ion”. For the same compound, in assay [1] (1 μM secretin after amiloride, FIG. 7 point b), the “ionic movement (short circuit current)” value is on record as “stimulates ionic movement of a negatively charged ion”. Moreover, the “ionic movement (short circuit current)” value in assay [4] (3 μM human secretin on luminal membrane after 10 μM amiloride, FIG. 5) is “stimulate ionic movement in a manner consistent with the movement of a negatively charged ion”. For the same compound, in the assay with rats, the defecation entry was “significantly increased defecation”, the novel-object approaches result is recorded as “decreased novel-object approaches” and the stereotypic behaviour result is “no significant effects on stereotypic behaviour”.
`Nc1ncnc2c1ncn2[C@@H]1O[C@H](COP(=O)(O)OP(=O)(O)OP(=O)(O)O)[C@@H](O)[C@H]1O` [ATP]: the “ionic movement (short circuit current)” value in assay [4] (setting [5]) is “stimulate a similar ionic movement of similar magnitude”.
Turning to `O=C(O)c1cc([N+](=O)[O-])ccc1NCCCc1ccccc1` [NPPB, 5-nitro-2-(3-phenylpropyl-amino)benzoic acid], in assay [3] (100 μM NPPB with 100 nM secretin), the “effect on secretin mediated changes in MQAE fluorescence (Cl- efflux)” value is listed as “abolished”.
Take `O=c1ccn([C@@H]2O[C@H](COP(=O)(O)OP(=O)(O)OP(=O)(O)O)[C@@H](O)[C@H]2O)c(=O)[nH]1` [UTP]: the “ionic movement (short circuit current)” value in assay [4] (setting [5]) is listed as “stimulate a similar ionic movement of similar magnitude”.

The record behind these values is patent US6780839B2, “Use of secretin-receptor ligands in treatment of cystic fibrosis (CF) and chronic obstructive pulmonary disease (COPD)” (Pharmagene Laboratories Ltd., priority 2000, dated 2004).
